Assay [1] concerns mouse monoclonal anti-THC antibody. Put plainly: Interference of free 5-pentylresorcinol with antibody binding to immobilised 5-pentylresorcinol-macromolecule conjugates. The note with it: 5-pentylresorcinol in free solution.
The subject of assay [2] is gold-labelled mouse monoclonal anti-THC antibody. Put plainly: Lateral flow immunochromatography test for cannabis, immobilised BSA-CAN (5-pentylresorcinol/BSA) conjugate, spiked oral fluid, Cozart Rapiscan reader. The note with it: for Concentration giving positive Cozart Rapiscan Response: immobilised conjugate BSA-CAN, lowest concentration in spiked drug-free oral fluid giving a positive signal on the reader; for Detectable level by competitive immunoassay: 5-pentylresorcinol conjugate with commercial anti-THC antibody.

For assay [3] the test system is unchanged. The assay can be described thus: Lateral flow immunochromatography test for cannabis, immobilised BSA-THC conjugate, spiked oral fluid, Cozart Rapiscan reader. The note with it: lowest concentration in spiked drug-free oral fluid giving a positive signal on the reader.
The subject of assay [4] is antibodies raised to THC-COOH coupled to a carrier protein via the phenolic group at C1. The following applies: relative to THC-COOH; commercially available assay; cited from earlier work.

Data on four molecules can be found in patent US7790400B2, “Delta-9-tetrahydrocannabinol detection method” (Concateno UK Limited, priority 2004, dated 2010).

Take `CCCCCc1cc(O)cc(O)c1` [5-pentylresorcinol]: the “Interference with binding of anti-THC antibody to immobilised conjugate” value in assay [1] is “does not interfere”.
For `CCCCCc1cc(O)c2c(c1)OC(C)(C)[C@@H]1CCC(CO)=C[C@@H]21` [THC—OH, 11-hydroxy-delta-9-THC], in assay [2] (5-pentylresorcinol conjugate and anti-THC antibody combination), the “Sensitivity of detection compared with the parent drug THC” value was “comparable sensitivity to the parent drug”. The “Concentration giving positive Cozart Rapiscan Response” value was found to be 20 ng/mL in assay [2] and 200 ng/mL in assay [3].
Consider `CCCCCc1cc(O)c2c(c1)OC(C)(C)[C@@H]1CCC(C)=C[C@@H]21` [THC, Delta-9-tetrahydrocannabinol], for which, in assay [2], the “Detectable level by competitive immunoassay” value is ≤ 20 ng/mL and the “Concentration giving positive Cozart Rapiscan Response” value came to 20 ng/mL. In assay [2] (lateral flow strips, BSA-CAN compared with BSA-THC), the “Increase of sensitivity of detection with BSA-CAN versus BSA-THC” value was “about 10 fold”. Besides, the “Concentration giving positive Cozart Rapiscan Response” value in assay [3] came to 200 ng/mL. Further, the Cross-reactivity in assay [4] is recorded as 5%.
As to `CCCCCc1cc(O)c2c(c1)OC(C)(C)[C@@H]1CCC(C(=O)O)=C[C@@H]21` [THC—COOH, 11-nor-9-carboxy-delta-9-THC], in assay [2], the “Detectable level by competitive immunoassay” value is on record as “about 1.0 ng/ml” and the “Concentration giving positive Cozart Rapiscan Response” value stood at 1.0 ng/mL. Moreover, in assay [3], the “Concentration giving positive Cozart Rapiscan Response” value worked out at 10 ng/mL.
